PubChem BioAssay (NCI)
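Five concentrations, 48 hours, 96-well plates. GI50 is the concentration that inhibits growth by half. TGI denotes the concentration required for complete inhibition of growth.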

System: KM12 colon
Assay: DTP human tumour cell line panel, 48 h

Compound	GI50 [µM]	TGI [µM]
CCOC(=O)[C@@H](N)CCC(=O)N[C@@H](CSCc1ccccc1)C(=O)N[C@@H](C(=O)OCC)c1ccccc1	18.1	33.8
COc1ccc(Nc2c3ccccc3nc3occc23)cc1	0.274	5.43
CS/C(N)=N\NC(=O)CCC(=O)Nc1ccccc1C(F)(F)F	–	> 100
CC(=O)/C(C)=N/NC(=O)c1ccccc1O	> 100	> 100
CCCCCCCC/C=C/CCCCCCCC(=O)OC[C@H]1O[C@@H](n2ccc(N)nc2=O)C(F)(F)[C@@H]1O	> 100	> 100
NS(=O)(=O)c1ccc(N=Nc2c(O)[nH]c3ccc(-c4cnco4)cc23)cc1	6.86	> 23.9
CCC[CH2][Sn]1([CH2]CCC)[O]CC(CN2CCCC2)[O]1 (configuration not stated)	16.1	36.4

System: RPMI-8226 leukemia
Assay: DTP human tumour cell line panel, 48 h

Compound	TGI [µM]	GI50 [µM]
Cc1nc(N)sc1C(=O)/C=C\c1ccc2c(c1)OCO2	> 100	–
CN1CCN(CCCOc2ccc3nc(Nc4ccc(Cl)c(C(F)(F)F)c4)ccc3c2)CC1	34.2	14.3
Cn1c(=O)c(C(c2ccc([N+](=O)[O-])cc2)c2c(O)c3ccccc3n(C)c2=O)cc2ccccc21 (configuration not stated)	> 100	–
CC(C)n1nc(-c2cc3cc(O)ccc3[nH]2)c2c(N)ncnc21	1.25	0.0705
CCCCC(O)(c1ccc(Cl)cc1)C(CN1CCOCC1)c1ccc(Cl)cc1 (configuration not stated)	36.2	10.4
CCOC(=O)C1=C(C)N(NC(=O)Nc2ccccc2)C(=O)C1=P(c1ccccc1)(c1ccccc1)c1ccccc1	82.5	–
COc1cc(C=C2C(=O)NC(=O)NC2=O)cc(OC)c1OC	> 100	–
Nn1c(=O)n(Cc2ccccc2)n(-c2ccccc2)c1=O	> 100	–
NCC1Nc2ccccc2[C@@H](O)C1O (some centres not stated)	> 100	–
OC[C@H]1CCCC1O (some centres not stated)	> 100	–
Cc1cccc(N2CCN(C(=S)c3ccc4c(c3)OCO4)CC2)c1	> 100	8.01
O=C1OC(C(O)CO)C(=O)C1=O (configuration not stated)	8420	2460
COC(=O)C1=CNC=C(C(=O)OC)C1C1=CC(=O)C(C)=CC1=O	7.5	2.9
C=C1C(=O)O[C@H]2[C@H]1CC/C(COC(=O)C(=O)c1cn(Cc3ccccc3)c3ccccc13)=C\CC[C@@]1(C)O[C@@H]21	8.04	2.09
Cc1ccc(C(=O)CN(/C=C/C(=O)C(F)(F)F)c2ccc(S(N)(=O)=O)cc2)cc1	> 100	29.7
COC(C(O)CO)C(O)C(O)C(=O)NNc1ccccc1 (configuration not stated)	> 100	–
NS(=O)(=O)c1ccc(NC2(C(=O)O)CCCC2)cc1	> 100	–
O=C(O)C1OC(n2cc(F)c(=O)[nH]c2=O)CC1O (configuration not stated)	> 100	–
CC(C)C(Nc1c2ccccc2nc2ccccc12)C(=O)O (configuration not stated)	> 100	–
N=C1C(c2nc3ccccc3s2)=C(O)CN1c1cc(C(F)(F)F)ccc1Cl	53	7.46
COc1ccccc1CCc1cc(OC)c(OC)c(OC)c1	68.8	–
COc1cc2c(cc1OC)C(CC(=O)NN=C(C)C)NCC2 (configuration not stated)	> 100	–
COC(=O)/C(=N\Nc1nnc(C)n1N)C(C#N)c1ccc(Cl)cc1 (configuration not stated)	> 100	–
Cc1cccc(NC(=O)C(=O)C(C(=O)c2ccc3ccccc3c2)C2OC(=O)c3ccccc32)c1C (configuration not stated)	43.2	–
CCOC(=O)[C@@H](N)CCC(=O)N[C@@H](CSCc1ccccc1)C(=O)N[C@@H](C(=O)OCC)c1ccccc1	45.1	17.8
COc1ccc(Nc2c3ccccc3nc3occc23)cc1	12.4	1.12
CS/C(N)=N\NC(=O)CCC(=O)Nc1ccccc1C(F)(F)F	> 100	–
CC(=O)/C(C)=N/NC(=O)c1ccccc1O	> 100	> 100
CCCCCCCC/C=C/CCCCCCCC(=O)OC[C@H]1O[C@@H](n2ccc(N)nc2=O)C(F)(F)[C@@H]1O	> 100	0.128
NS(=O)(=O)c1ccc(N=Nc2c(O)[nH]c3ccc(-c4cnco4)cc23)cc1	> 25	> 25
